# Measured values as given in patent US5602156A, “Method for inhibiting metalloproteinase expression” (The United States of America as represented by the …, priority 1994, dated 1997).
# “Also recorded” adds a separate entry of the source.
# Tests used:
# arachidonic acid release = details: cited from earlier work
# phospholipase C-γ = details: cited from earlier work
# [1] = tested on: receptor-operated and voltage-gated calcium influx; details: cited from earlier work
# MMP-2 [2] = experiment: Gelatin zymography of conditioned media from human cancer cell lines (gelatinase activity); format: cell-based
# Procedure: (§1) Conditioned media for zymogram and Western blot analysis were produced under serum-free conditions. Cells (2 million) were plated in 25 cm^2 flasks in serum-containing medium and cultured overnight. Serum-containingmedium was removed and the cell monolayers were washed twice with DMEM/ITS (DMEM containing insulin (5 μg/mL), transferrin (5 μg/mL), and selenium (5 ng/mL)). The resultant cells were fed with 3 mL of DMEM/ITS and additives as described in the Examples for two 24 hour periods. Conditioned media samples were collected at 24 hours and cells were refed with fresh DMEM/ITS containing the described additives for an additional 24 hours. Conditioned media samples were centrifuged to remove cells and debris then frozen at -20° C. until use. Freeze and thaw cycles of the conditioned media were limited to no more than two.
# Quantitation of the effect was evaluated by laser densitometry of the resultant zymograms.
# Aliquots of conditioned medium (15 μL) were electrophoresed on gelatin-containing 10% PAGE gels under nonreducing but denaturing conditions. These conditions allow the different gelatin-degrading species (MMPs) to separate by size. […] Bands of clearing, seen after Coomassie blue staining correspond to areas of gelatinase activity.
# OVCAR3 conditioned media samples were concentrated 10-fold prior to zymography.
# Known concentrated conditioned medium from HT1080 cells was used for identification of the gelatinase species as marked in FIG. 1A: 92 kDa, gelatinase B/MMP-9; 72 kDa, gelatinase A/MMP-2 latent form; 65 kDa intermediate and 62 kDa activated forms of MMP-2. The activated form of MMP-2 results from cleavage of the amino terminal domain.
# Lane 1 corresponds to cells treated only with 0.05% DMSO as a control.
# Quantitation of the zymograms in FIGS. 1A-1C were carded out using laser densitometry.
# The effect of structural analogs on the gelatinase activity of A2058 cells was similarly evaluated.
# [3] = tested on: gelatinase activity of the metalloproteinases; experiment: Zymogram slices incubated with compound 1 or calcium chelators in the activating buffer (direct inhibition of enzyme); format: biochemical, human; details: 10 mM chelator in incubation buffer; data not shown
# Procedure: See, Felder, et al., J. Pharm. Exp. Therapeut. 257:967-971 (1991) and unpublished observations by the inventors.
# Gelatin zymography was carded out using control conditioned media from A2058 cells and HT1080 cells in the absence of compound 1. Zymogram slices were incubated in low salt collagenase buffer with control (DMSO 0.1%), an inhibitory dose of compound 1 (20 μM), or the calcium chelators EGTA (10 mM) and EDTA (10 mM). […] See, Brown, et al., Cancer Res. 50:6184-6191 (1990). […] Lane 1 for each of the zymograms corresponds to A2058 while lane 2 corresponds to HT1080.
# [4] = tested on: gelatinase activity of the metalloproteinases; details: EDTA in incubation buffer; shown by others; cited from earlier work
# MMP-2 [5] = details: cited from earlier work; for MMP-2 induction/inhibition: human melanoma and fibrosarcoma cells
# [6] = tested on: interstitial collagenase, MMP-1; details: human melanoma and fibrosarcoma cells; cited from earlier work
# MMP-2 [7] = experiment: Gelatin zymography of HT1080 cells, compound 1 with or without TGF-β1 (densitometry); format: cell-based, human; details: TGF-β alone (0 hr compound 1), control band = 100%
# Procedure: as §1
# (§2) A2058 human melanoma cells, human HT1080 fibrosarcoma cells, and OVCAR3 human ovarian cancer cells were incubated with increasing concentrations of compound 1 (0.2-20 μM) or DMSO control (0.05%) and subjected to gelatin zymography. Aliquots of conditioned medium (15 μL) were electrophoresed on gelatin-containing 10% PAGE gels under nonreducing but denaturing conditions. These conditions allow the different gelatin-degrading species (MMPs) to separate by size. The enzymes renature after removal of the SDS by incubation of the gel with 2.5 % Triton X-100, and degrade the gelatin substrate present in the polyacrylamide gel upon overnight incubation in low salt collagenase buffer. Bands of clearing, seen after Coomassie blue staining correspond to areas of gelatinase activity.
# (§3) A2058 and HT1080 cells were incubated with compound 1 (2 μM), with or without TGF-β1 (5 ng/mL) for 24 and 48 hours prior to harvest of conditioned media. Aliquots were subjected to gelatin zymography as described in Example 1. Known concentrated conditioned medium from HT1080 cells was used for identification of the gelatinase species (92 kDa, gelatinase B/MMP-9; 72 kDa, gelatinase A/MMP-2 latent form; 65 kDa intermediate and 62 kDa activated forms of MMP-2).
# (§4) Lane 1 is the control resulting from treatment of the cells with 0.1% DMSO. Lanes 2 and 3 correspond to those cells which are treated with 2 μM compound 1 in the absence of TGF-β1 for 24 and 48 hours, respectively. Lane 4 corresponds to cells which have been treated with TGF-β1 in the absence of compound 1. Lane 5 corresponds to cells which have been treated with TGF-β1 for 48 hours with compound 1 being added to the incubation mixture for the final 24 hours. Lane 6 corresponds to cells which have been treated for 48 hours with both TGF-β1 and compound 1.
# (§5) *The control band was defined as 100% gelatinase activity and the other
# (§6) bands were normalized to it. Numbers reflect triplicate measurements from
# (§7) each zymogram band of representative zymograms. Standard deviations, not
# gelatinase activity = experiment: Gelatin zymography of A2058 and HT1080 cells, compound 1 with or without TGF-β1 (results in words); format: cell-based, human; details: TGF-β1 (5 ng/mL) alone for 48 hr
# Procedure: as §3, §4
# MMP-2 [8] = experiment: Gelatin zymography of A2058 cells, compound 1 with or without TGF-β1 (densitometry); format: cell-based, human; details: TGF-β1 alone (0 hr compound 1), control band = 100%
# Procedure: as §1, §2, §3, §4, §5, §6, §7
# MMP-9 = experiment: Gelatin zymography of HT1080 cells, compound 1 with or without TGF-β1 (densitometry), 92 kDa; format: cell-based, human; details: TGF-β alone (0 hr compound 1), control band = 100%
# Procedure: as §1, §2, §3, §4, §5, §6, §7
compound,measurement,setting,value
"COc1ccc(CCCOC(Cn2ccnc2)c2ccc(OC)cc2)cc1 (stereo not shown) [Compound 2, reference compound]",arachidonic acid release,arachidonic acid release,inhibited
same,tyrosine phosphorylation with activation of phospholipase C-γ,phospholipase C-γ,inhibited
same,calcium influx inhibition,[1],inhibited; also recorded: effective inhibitor of receptor-operated calcium channels with reactivity against some voltage-gated calcium channels
same,MMP-2 activity,"MMP-2 [2]; A2058, 10 μM (FIG. 1E)",reduced MMP-2 activity
same,inhibition of MMP-2 gelatinase activity (FIG. 1),MMP-2 [2]; zymograms of FIG. 1,inhibition
"O=C(O)CN(CCN(CC(=O)O)CC(=O)O)CC(=O)O [EDTA, ethylenediamine tetraacetic acid, reference compound]",requirement for metal ion in the activation buffer,[3],confirmed the requirement for metal ion (Ca^++) in the activation buffer
same,inhibition of gelatinolytic activity,[4],inhibit gelatinolytic activity
"O=C(O)CN(CCOCCOCCN(CC(=O)O)CC(=O)O)CC(=O)O [EGTA, ethylenebis(oxyethylenenitrilo)tetraacetic acid, reference compound]",requirement for metal ion in the activation buffer,[3],confirmed the requirement for metal ion (Ca^++) in the activation buffer
"CCCCCCCCCCCCCC(=O)OC1C(C)C2(O)C(C=C(CO)CC3(O)C(=O)C(C)=CC32)C2C(C)(C)C12OC(C)=O (stereo not shown) [TPA, 12-O-tetradecanoylphorbol-13-acetate, reference compound]",MMP-2 induction/inhibition,MMP-2 [5],inhibition of MMP-2
same,MMP-1 induction/inhibition,[6],induction of MMP-1
TGF-β1: transforming growth factor-β1,production of MMP-2 by stimulation of RNA expression,MMP-2 [5]; cell type not stated,stimulate production of MMP-2 by stimulation of RNA expression
same,MMP-2 induction/inhibition,MMP-2 [5],induction of MMP-2
same,"gelatinase activity, 65 + 62 kDa",MMP-2 [7],192%
same,"gelatinase activity, 72 kDa",MMP-2 [7],47%
same,gelatinase activity,gelatinase activity,increased gelatinase activity
same,"gelatinase activity, 65 + 62 kDa",MMP-2 [8],0%
same,"gelatinase activity, 72 kDa",MMP-2 [8],68%
same,MMP-1 induction/inhibition,[6],"inhibition of the interstitial collagenase, MMP-1"
same,"gelatinase activity, 92 kDa",MMP-9,64%
